Measurements reported in patent US6093730A, “Substituted isoquinoline-3-carboxamides, their preparation and their use as pharmaceuticals” (Hoechst Marion Roussel Deutschland GmbH, priority 1997, dated 2000).

How the values were obtained:
hydroxyproline formation = test: Carbon tetrachloride-induced liver fibrosis model in rats, inhibition of hydroxyproline formation; assay type: in vivo, rat; settings: two weeks with CCl4
Procedure: The antifibrotic action was determined in the model of carbon tetrachloride-induced liver fibrosis. For this, rats were treated twice weekly with CCl4 (1 ml/kg) dissolved in olive oil. The test substance was administered daily, if appropriate even twice daily, orally or intraperitoneally dissolved in a suitable compatible solvent. The extent of the liver fibrosis was determined histologically and the proportion of collagen in the liver was analyzed by hydroxyproline determination as described in Kivirikko et al., ANAL. BIOCHEM. […] The fibrogenesis activity was determined by radioimmunological determination of collagen fragments and procollagen peptides in the serum.
The measurement of the inhibition of hydroxyproline formation by the test substances was based on this level.
Here the experimental animals were treated for two weeks only with carbon tetrachloride, then for the next two weeks with carbon tetrachloride and test substance. The test substances were administered intraperitoneally twice per day in the total amount indicated below in Table II,

prolyl-4-hydroxylase [1] = target: T1, prolyl-4-hydroxylase (Gallus gallus, UniProt P16924); test: Inhibition of prolyl-4-hydroxylase (Table I); assay type: biochemical
T1 sequence (P16924 1-516): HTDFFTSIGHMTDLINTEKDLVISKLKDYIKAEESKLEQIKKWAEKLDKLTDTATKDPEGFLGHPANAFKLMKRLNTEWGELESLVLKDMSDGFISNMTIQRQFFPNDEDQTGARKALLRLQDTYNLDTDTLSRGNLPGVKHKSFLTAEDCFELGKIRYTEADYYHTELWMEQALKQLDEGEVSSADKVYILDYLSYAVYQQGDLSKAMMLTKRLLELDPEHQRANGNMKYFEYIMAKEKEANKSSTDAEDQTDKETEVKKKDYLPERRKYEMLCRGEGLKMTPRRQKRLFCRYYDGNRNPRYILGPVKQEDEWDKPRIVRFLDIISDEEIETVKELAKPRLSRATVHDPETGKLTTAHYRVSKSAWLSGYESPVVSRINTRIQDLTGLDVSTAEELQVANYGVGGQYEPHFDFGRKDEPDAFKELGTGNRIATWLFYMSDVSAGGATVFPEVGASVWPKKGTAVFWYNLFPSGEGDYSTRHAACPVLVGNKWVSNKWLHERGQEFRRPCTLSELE
T1 sequence (P09102 23-515 partner): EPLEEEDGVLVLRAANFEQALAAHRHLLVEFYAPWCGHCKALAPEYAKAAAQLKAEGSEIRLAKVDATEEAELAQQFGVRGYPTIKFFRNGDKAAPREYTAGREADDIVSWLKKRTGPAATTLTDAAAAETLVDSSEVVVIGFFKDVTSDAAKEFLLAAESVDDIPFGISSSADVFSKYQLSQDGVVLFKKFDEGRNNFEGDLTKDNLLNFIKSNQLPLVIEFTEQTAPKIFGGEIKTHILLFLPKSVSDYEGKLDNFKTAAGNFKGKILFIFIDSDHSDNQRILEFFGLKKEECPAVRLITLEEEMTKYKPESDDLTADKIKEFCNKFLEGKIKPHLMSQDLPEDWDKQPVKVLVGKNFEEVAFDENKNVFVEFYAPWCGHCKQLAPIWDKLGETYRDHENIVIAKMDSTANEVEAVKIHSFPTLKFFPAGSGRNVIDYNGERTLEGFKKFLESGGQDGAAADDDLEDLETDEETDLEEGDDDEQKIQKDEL
Procedure: The inhibition of this enzyme was determined as described by Kaule and Gunzler, ANAL. BIOCHEM.

liver steatosis = test: Liver steatosis on treatment of male rats; assay type: in vivo, rat; settings: up to six weeks, male rats (Fischer F344, Sprague Dawley, Wistar), 2×25 mg/kg i.p/day, in water/NaHCO3
prolyl-4-hydroxylase [2] = target: T1, prolyl-4-hydroxylase; test: Combined liver perfusion/enzyme assay (prolyl-4-hydroxylase inhibition after rat liver perfusion); assay type: biochemical, chicken; design: The enzyme is purified from 14 day-old chicken embryos; from tissue; host or cells: 14-day-old chicken embryos; settings: after 120 min rat liver perfusion; 100 or 50 μg/ml added at t=0 and 60 min
Procedure: In order to investigate the inhibitory action of such active proinhibitors, the compounds were employed in perfusion experiments on isolated rat liver. The inhibitory action was then measured in a prolyl-4-hydroxylase assay.
Unfasted male Wistar rats of 200-300 g body weight (Hoe:WISKf(SPF71)) were anesthetized with pentobarbital (5 mg/100 g of body weight i.p.). After cannulation of the portal vein, the liver was washed with 100 ml of heparinized saline solution (5 lU/ml) of 37° C. for 3 min. The fluid left the liver by the incised vena cava. The organ was then removed, attached to the perfusion apparatus and perfused at a flow rate of 30 ml/min with 100 ml of medium for 2 hours under recirculating conditions. Krebs-Ringer buffer containing bovine erythrocytes was used for the perfusion. For this, bovine blood was mixed 1:1 with a citrate solution in the slaughterhouse immediately after removal. This mixture was centrifuged at 6000 rpm for 10 min and the supernatant was removed. This process was repeated once using saline solution and twice using Krebs-Ringer buffer. The final perfusion solution contained 33.3% of the erythrocyte sediment and 66.7% of Krebs-Ringer buffer (Schimassek, H. BIOCHEM. Z. 336 (1963) 460-467).
Perfusion apparatus (Ryoo and Tarver, H.P.S.E.B.M. 128 (1968) 760-72): The central element of the apparatus is a thermostated cylinder having a removable plate for the storage of the organ. The outlet tube is extended and its lower end is attached to a peristaltic pump. Before the return of the perfusate into the organ bath, it is passed through a glass spiral, which serves as a heat exchanger, which keeps the temperature constant at 37° C. At the bottom of the cylinder, the perfusate is aerated with 70 ml of a CO2 /O2 mixture (5:95%) per minute. In order to avoid foam formation, 14 μl of 0.1% strength Genapol® PF-10 solution are added per ml of perfusion solution. Samples for analysis are removed from the perfusate at a position before entry into the perfused organ.
The test substances were added to the perfusion solution at time t=0 and 60 min in concentrations of 100 or 50 μg/ml in each case. After a perfusion time of 120 min, a sample of the perfusion solution was removed for analysis.
The inhibitory activity of the metabolites which are formed in the liver during the two-hour perfusion was determined in an in vitro prolyl-4-hydroxylase assay. The enzyme is purified from 14 day-old chicken embryos as described in the literature (Tuderman et al., EUR.J.BIOCHEM. 52 (1975) 9-16; Kedersha and Berg, COLLAGEN REL. RES. 1 (1981) 345-53). The enzyme test is carried out according to Kaule and Gunzler, ANAL. BIOCHEM. 184 (1990) 291-97). Dose-response curves were obtained by means of dilution series, starting from the undiluted perfusion solution.

collagen biosynthesis = settings: Franklin et al.; cited from earlier work
prolyl hydroxylase [3] = settings: Tschank et al.; cited from earlier work
prolyl hydroxylase [4] = settings: Majamaa et al.; cited from earlier work
[5] = 20 mg/kg (total), intraperitoneal twice per day
[6] = 40 mg/kg (total), intraperitoneal twice per day

## CC(C)Oc1ccc2c(O)c(C(=O)NCC(=O)O)nc(Cl)c2c1 [Example 1, N-((1-Chloro-4-hydroxy-7-(2-propyloxy)isoquinolin-3-yl)carbonyl)glycine]
Hydroxyproline formation; [5]
  Change in hydroxyproline formation: -55%
prolyl-4-hydroxylase [1]; Table I, read-out: IC50
  IC50: 120 nM

## CC(C)Oc1ccc2c(Cl)nc(C(=O)NCC(=O)O)c(O)c2c1 [Example 2, N-((1-Chloro-4-hydroxy-6-(2-propyloxy)isoquinolin-3-yl)carbonyl)glycine]
prolyl-4-hydroxylase [1]; Table I, read-out: IC50
  IC50: 1900 nM

## COc1ccc2c(O)c(C(=O)NCC(=O)O)nc(Cl)c2c1 [Example 3, N-((1-Chloro-4-hydroxy-7-methoxyisoquinolin-3-yl)carbonyl)glycine]
prolyl-4-hydroxylase [1]; Table I, read-out: IC50
  IC50: 790 nM

## COc1ccc2c(Cl)nc(C(=O)NCC(=O)O)c(O)c2c1 [Example 4, N-((1-Chloro-4-hydroxy-6-methoxyisoquinolin-3-yl)carbonyl)glycine]
prolyl-4-hydroxylase [1]; Table I, read-out: IC50
  IC50: 570 nM

## CCCCOc1ccc2c(O)c(C(=O)NCC(=O)O)nc(Cl)c2c1 [Example 5, N-((7-(1-Butyloxy)-1-chloro-4-hydroxyisoquinolin-3-yl)carbonyl)glycine]
prolyl-4-hydroxylase [1]; Table I, read-out: IC50
  IC50: 700 nM

## CCCCOc1ccc2c(Cl)nc(C(=O)NCC(=O)O)c(O)c2c1 [Example 6, N-(-6-(1-Butyloxy-1-chloro-4-hydroxyisoquinolin-3-yl)carbonyl)glycine]
prolyl-4-hydroxylase [1]; Table I, read-out: IC50
  IC50: 2020 nM

## O=C(O)CNC(=O)c1nc(Cl)c2ccc(OCc3ccccc3)cc2c1O [Example 7, N-((6-Benzyloxy-1-chloro-4-hydroxyisoquinolin-3-yl)carbonyl)glycine]
prolyl-4-hydroxylase [1]; Table I, read-out: IC50
  IC50: 1340 nM

## O=C(O)CNC(=O)c1nc(Cl)c2cc(OCc3ccccc3)ccc2c1O [Example 8, N-((7-Benzyloxy-1-chloro-4-hydroxyisoquinolin-3-yl)carbonyl)glycine]
prolyl-4-hydroxylase [1]; Table I, read-out: IC50
  IC50: 620 nM

## O=C(O)CNC(=O)c1nc(Cl)c2ccccc2c1O [Example 9, N-((1-Chloro-4-hydroxyisoquinolin-3-yl)carbonyl)glycine]
Hydroxyproline formation; [5]
  Change in hydroxyproline formation: -67%
Hydroxyproline formation; [6]
  Change in hydroxyproline formation: -65%
Hydroxyproline formation; 100 mg/kg (total), intraperitoneal twice per day
  Change in hydroxyproline formation: -58%
Hydroxyproline formation; 100 mg/kg, oral administration
  Change in hydroxyproline formation: -71%
Liver steatosis
  liver steatosis: It was not possible to demonstrate any liver steatosis
prolyl-4-hydroxylase [1]
  IC50: 2300 nM

## O=C(O)CNC(=O)c1nc(Cl)c2cc(Cl)c(Cl)cc2c1O [Example 10, N-((1,6,7-Trichloro-4-hydroxyisoquinolin-3-yl)carbonyl)glycine]
prolyl-4-hydroxylase [1]; Table I, read-out: IC50
  IC50: 3600 nM

## O=C(O)CNC(=O)c1ncc2c(Cl)cccc2c1O [Example 11, N-((8-Chloro-4-hydroxyisoquinolin-3-yl)carbonyl)glycine]
prolyl-4-hydroxylase [1]; Table I, read-out: IC50
  IC50: 660 nM

## COc1cccc2c(O)c(C(=O)NCC(=O)O)ncc12 [Example 12, N-((4-Hydroxy-8-methoxyisoquinolin-3-yl)carbonyl)glycine]
prolyl-4-hydroxylase [1]; Table I, read-out: IC50
  IC50: 650 nM

## CCCCOc1ccc2c(O)c(C(=O)NCC(=O)O)ncc2c1 [Example 13, N-((7-(1-Butyloxy)-4-hydroxyisoquinolin-3-yl)carbonyl)glycine]
prolyl-4-hydroxylase [1]; Table I, read-out: IC50
  IC50: 9300 nM

## CCCCOc1ccc2cnc(C(=O)NCC(=O)O)c(O)c2c1 [Example 14, N-((6-(1-Butyloxy)-4-hydroxyisoquinolin-3-yl)carbonyl)glycine]
prolyl-4-hydroxylase [1]; Table I, read-out: IC50
  IC50: 350 nM

## CC(C)Oc1ccc2c(O)c(C(=O)NCC(=O)O)ncc2c1 [Example 15, N-((4-Hydroxy-7-(2-propyloxy)isoquinolin-3-yl)carbonyl)glycine]
prolyl-4-hydroxylase [1]; Table I, read-out: IC50
  IC50: 660 nM

## CC(C)Oc1ccc2c(O)c(C(=O)NCCO)nc(Cl)c2c1 [Example 19, 1-Chloro-4-hydroxy-7-(2-propyloxy)isoquinoline-3-carboxylic acid N-(2-hydroxyethyl)amide]
Hydroxyproline formation; [6]
  Change in hydroxyproline formation: -39%
prolyl-4-hydroxylase [2]
  IC50: 10500 nM

## CC(C)Oc1ccc2c(Cl)nc(C(=O)NCCO)c(O)c2c1 [Example 20, 1-Chloro-4-hydroxy-6-(2-propyloxy)isoquinoline-3-carboxylic acid N-(2-hydroxyethyl)amide]
prolyl-4-hydroxylase [2]
  IC50: 16600 nM

## COc1ccc2c(O)c(C(=O)NCCO)nc(Cl)c2c1 [Example 21, 1-Chloro-4-hydroxy-7-methoxyisoquinoline-3-carboxylic acid N-(2-hydroxyethyl)amide]
prolyl-4-hydroxylase [2]
  IC50: 7500 nM

## COc1ccc2c(Cl)nc(C(=O)NCCO)c(O)c2c1 [Example 22, 1-Chloro-4-hydroxy-6-methoxyisoquinoline-3-carboxylic acid N-(2-hydroxyethyl)amide]
prolyl-4-hydroxylase [2]
  IC50: 6400 nM

## CCCCOc1ccc2c(O)c(C(=O)NCCO)nc(Cl)c2c1 [Example 23, 7-(1-Butyloxy)-1-chloro-4-hydroxyisoquinoline-3-carboxylic acid N-(2-hydroxyethyl)amide]
prolyl-4-hydroxylase [2]
  IC50: 21700 nM

## O=C(O)CNC(=O)c1ncc2ccccc2c1O [N-((4-Hydroxyisoquinolin-3-yl)carbonyl)glycine]
Collagen biosynthesis
  in-vivo activity on collagen biosynthesis: poor

## O=C(O)c1ccnc(C(=O)O)c1 [pyridine-2,4-dicarboxylic acid]
Prolyl hydroxylase [3]
  activity as inhibitors in cell culture: only active as inhibitors in very high concentrations
Prolyl hydroxylase [4]
  inhibition of prolyl hydroxylase: effectively inhibited

## O=C(O)c1ccc(C(=O)O)nc1 [pyridine-2,5-dicarboxylic acid]
Prolyl hydroxylase [3]
  activity as inhibitors in cell culture: only active as inhibitors in very high concentrations
Prolyl hydroxylase [4]
  inhibition of prolyl hydroxylase: effectively inhibited
